These results are taken from patent US11834454B2, “Alkynylphenylbenzamide compounds and applications thereof” (SHENZHEN NEWDEL BIOTECH CO., LTD., priority 2021, dated 2023).

In general, AUC(0-t) refers to the area under the concentration-time curve up to a stated or last time point. In general, Cmax refers to the maximum level reached in the sampled fluid or tissue. In general, Tmax refers to the time from dosing to the highest level. For orientation: half-life means the time needed for the level to fall by half in the phase considered. Usually IC50 stands for the concentration at which inhibition is half-maximal.

Read-outs that look alike come from different tables or passages of the source.

The conditions of data set [1]: SD rats, cited from earlier work.
In data set [2] the target is T1, TRKC (Homo sapiens, UniProt Q16288).
T1 construct: purchased American Life Technologies PV3617
T1 sequence (Q16288 32-839): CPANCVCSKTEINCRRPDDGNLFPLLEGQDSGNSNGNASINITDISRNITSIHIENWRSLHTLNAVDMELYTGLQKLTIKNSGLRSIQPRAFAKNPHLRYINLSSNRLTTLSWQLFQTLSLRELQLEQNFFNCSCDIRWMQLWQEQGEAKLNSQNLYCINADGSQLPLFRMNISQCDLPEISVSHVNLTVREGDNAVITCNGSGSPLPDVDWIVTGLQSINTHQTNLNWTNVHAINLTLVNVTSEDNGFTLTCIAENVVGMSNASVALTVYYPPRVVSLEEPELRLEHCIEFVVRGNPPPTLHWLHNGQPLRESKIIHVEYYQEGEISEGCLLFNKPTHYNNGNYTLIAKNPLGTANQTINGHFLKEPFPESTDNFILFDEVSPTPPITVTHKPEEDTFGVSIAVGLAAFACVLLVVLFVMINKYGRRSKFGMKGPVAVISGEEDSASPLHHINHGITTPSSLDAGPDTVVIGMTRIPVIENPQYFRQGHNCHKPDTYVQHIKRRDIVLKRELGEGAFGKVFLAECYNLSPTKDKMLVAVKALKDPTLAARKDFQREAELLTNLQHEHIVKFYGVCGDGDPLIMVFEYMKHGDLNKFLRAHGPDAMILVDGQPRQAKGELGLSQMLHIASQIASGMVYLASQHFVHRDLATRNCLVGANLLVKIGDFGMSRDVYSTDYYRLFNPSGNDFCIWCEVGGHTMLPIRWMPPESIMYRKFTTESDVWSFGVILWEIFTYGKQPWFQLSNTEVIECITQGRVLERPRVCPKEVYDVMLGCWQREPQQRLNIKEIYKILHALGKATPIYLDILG
Put plainly: Z'-LYTE kinase activity detection, TRKC. The format is biochemical.

Data set [3] concerns the target T2, TRKA (Homo sapiens, UniProt P04629).
T2 construct: purchased American Life Technologies PV3144
Put plainly: Z'-LYTE kinase activity detection, TRKA. It is filed as biochemical.

Data set [4] addresses T3, TRKB (Homo sapiens, UniProt Q16620).
T3 construct: purchased American Life Technologies PV3616
In words: Z'-LYTE kinase activity detection, TRKB. The format is biochemical.

The target of data set [5] is T4, BaF3-ETV6-NTRK2 (Homo sapiens, UniProt Q16620).
T4 construct: fused on or other part: P41212 (Transcription factor ETV6)
T4 sequence (Q16620 538-822 limits assumed): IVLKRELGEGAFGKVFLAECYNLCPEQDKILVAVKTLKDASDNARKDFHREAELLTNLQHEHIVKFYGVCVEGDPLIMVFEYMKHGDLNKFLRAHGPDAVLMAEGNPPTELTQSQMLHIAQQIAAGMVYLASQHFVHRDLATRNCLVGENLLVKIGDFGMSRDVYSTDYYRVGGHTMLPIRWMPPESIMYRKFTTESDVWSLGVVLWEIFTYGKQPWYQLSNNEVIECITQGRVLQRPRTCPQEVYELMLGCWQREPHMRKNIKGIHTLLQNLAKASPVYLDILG
In words: Cell proliferation inhibition, Ba/F3-TRKs stable strain (CCK-8). It is filed as cell-based, mouse. The settings on record: 72 hours, read-out: cell viability IC50 ETV6-NTRK2. An excerpt:
(§1) The BaF3 cells (mouse pre-B cells) used in this experiment were purchased from the Japanese Cell Bank. All of the monoclonal stable strains, BaF3-CD74-NTRK1, BaF3-ETV6-NTRK2 and BaF3-ETV6-NTRK3 were constructed by our laboratory, and were identified by experiments such as positive control, protein expression and gene sequencing.
(§2) The brief steps of stable strain construction were as follows: constructed pCDNA3.1(+) plasmid vector carrying genes such as CD74-NTRK1, ETV6-NTRK2, ETV6-NTRK3; the plasmid was electroporated into Ba/F3 cells using Amaxa® Cell Line Nucleofector® Kit V; 48 hours after electroporation, geneticin (G418) with a final concentration of 1000 μg/mL was added to screen for two weeks, and the interleukin 3 (IL3) was removed to continue screening to obtain polyclonal stable strains; and then single clones were selected by limiting dilution method; the stable strains were then identified by the positive drugs, Western Blot (WB), and gene sequencing; the correct monoclonal through identification can be used to study the cell proliferation inhibitory activity of the inhibitors.
(§3) Cell proliferation inhibitory activity study: The cells in logarithmic growth phase were seeded into 96-well plates at 8000-12000 cells/well, and the inhibitors at different concentrations of (0-10 μM) were added the next day, and the culture was continued for 72 hours; then 10 μL of Cell Counting Kit-8 Cell Counting Reagent (CCK-8 Reagent) was added to each well, and continued to incubate for 1-3 hours; then its absorbance at 450 nm and 650 nm were measured with a super microplate reader. The median inhibitory concentration (IC50) was calculated using medical graphing software (GraphPad Prism 8.0.0).

Data set [6] addresses T5, BaF3-ETV6-NTRK3 (Homo sapiens, UniProt Q16288).
T5 construct: fused on or other part: P41212 (Transcription factor ETV6)
Described as above. The format is cell-based, mouse. The conditions noted are these: 72 hours, read-out: cell viability IC50 ETV6-NTRK3.
Source text: as §1, §2, §3

Data set [7] has as its target T6, BaF3-CD74-NTRK1 (Homo sapiens, UniProt P04629).
T6 construct: fused on or other part: P04233 (HLA class II histocompatibility antigen gamma chain)
The data set is described as above. The format is cell-based, mouse. The conditions noted are these: 72 hours, read-out: cell viability IC50 CD74-NTRK1.
Source text: as §1, §2, §3

Data set [8] has as its target SRC (Homo sapiens, UniProt P12931). Put plainly: Kinase selectivity, Z'-LYTE.
Procedure: (§4) Enzymatic reaction: In a 384-well plate, added 5 μL of enzyme-substrate system [50 mM 4-hydroxyethylpiperazineethanesulfonic acid (HEPES) pH 7.5, 0.01% BRIJ-35, 10 mM of magnesium chloride (MgCl2), 1 mM of ethylene glycol bis(2-aminoethyl ether)tetraacetic acid (EGTA), 2 μM of Tyr 01 peptide substrate], transferred 5 nL of compound (concentration gradient) using an Echo520 Ultra-Micro Liquid Pipetting System. […] Shaked and mixed, then centrifuged, and reacted at 30° C. in the dark for 1.5 hours.
Data set [9] concerns the target PDGFRB (Homo sapiens, UniProt P09619). In words: Kinase selectivity, Z'-LYTE.
Procedure: as §4
Data set [10] deals with Bcr-Abl (Homo sapiens, UniProt P00519). In words: Kinase selectivity, Z'-LYTE.
Procedure: as §4
Data set [11] concerns the target VEGFR2 (Homo sapiens, UniProt P35968). In words: Kinase selectivity, Z'-LYTE.
Procedure: as §4
Data set [12] has as its target PDGFRA (Homo sapiens, UniProt P16234). In words: Kinase selectivity, Z'-LYTE.
Procedure: as §4
Data set [13] deals with Kit (Homo sapiens, UniProt P10721). Put plainly: Kinase selectivity, Z'-LYTE.
Procedure: as §4
In data set [14] the target is RET (Homo sapiens, UniProt P07949). In words: Kinase selectivity, Z'-LYTE.
Procedure: as §4

T6 sequence (P04629 510-796 limits assumed): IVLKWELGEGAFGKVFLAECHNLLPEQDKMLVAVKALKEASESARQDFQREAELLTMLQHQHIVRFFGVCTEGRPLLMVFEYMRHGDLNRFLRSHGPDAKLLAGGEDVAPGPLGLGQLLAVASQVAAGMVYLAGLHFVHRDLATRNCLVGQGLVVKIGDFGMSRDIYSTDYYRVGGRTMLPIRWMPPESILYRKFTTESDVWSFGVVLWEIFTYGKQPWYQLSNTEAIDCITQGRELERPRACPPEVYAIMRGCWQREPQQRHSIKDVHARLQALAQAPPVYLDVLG
T3 sequence (Q16620 32-822): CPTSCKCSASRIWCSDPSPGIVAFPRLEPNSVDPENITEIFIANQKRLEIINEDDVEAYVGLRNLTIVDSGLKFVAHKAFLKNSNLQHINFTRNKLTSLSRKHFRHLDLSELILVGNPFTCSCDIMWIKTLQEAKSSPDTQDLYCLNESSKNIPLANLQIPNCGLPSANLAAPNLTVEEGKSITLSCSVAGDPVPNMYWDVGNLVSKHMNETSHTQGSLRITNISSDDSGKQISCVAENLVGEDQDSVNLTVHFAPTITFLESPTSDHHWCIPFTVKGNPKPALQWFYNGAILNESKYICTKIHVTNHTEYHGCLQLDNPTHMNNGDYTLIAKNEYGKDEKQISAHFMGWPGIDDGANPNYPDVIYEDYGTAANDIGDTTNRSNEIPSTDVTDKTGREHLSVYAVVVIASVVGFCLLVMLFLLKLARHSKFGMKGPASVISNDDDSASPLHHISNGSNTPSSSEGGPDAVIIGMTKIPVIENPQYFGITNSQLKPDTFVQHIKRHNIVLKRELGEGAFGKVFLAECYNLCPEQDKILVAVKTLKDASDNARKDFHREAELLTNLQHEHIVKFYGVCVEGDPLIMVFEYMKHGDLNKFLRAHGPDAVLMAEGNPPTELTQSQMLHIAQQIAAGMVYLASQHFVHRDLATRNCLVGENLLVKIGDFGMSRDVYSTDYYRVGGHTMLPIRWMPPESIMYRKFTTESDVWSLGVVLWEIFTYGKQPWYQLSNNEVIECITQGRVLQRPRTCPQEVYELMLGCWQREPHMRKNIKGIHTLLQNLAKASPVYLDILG
T2 sequence (P04629 33-796): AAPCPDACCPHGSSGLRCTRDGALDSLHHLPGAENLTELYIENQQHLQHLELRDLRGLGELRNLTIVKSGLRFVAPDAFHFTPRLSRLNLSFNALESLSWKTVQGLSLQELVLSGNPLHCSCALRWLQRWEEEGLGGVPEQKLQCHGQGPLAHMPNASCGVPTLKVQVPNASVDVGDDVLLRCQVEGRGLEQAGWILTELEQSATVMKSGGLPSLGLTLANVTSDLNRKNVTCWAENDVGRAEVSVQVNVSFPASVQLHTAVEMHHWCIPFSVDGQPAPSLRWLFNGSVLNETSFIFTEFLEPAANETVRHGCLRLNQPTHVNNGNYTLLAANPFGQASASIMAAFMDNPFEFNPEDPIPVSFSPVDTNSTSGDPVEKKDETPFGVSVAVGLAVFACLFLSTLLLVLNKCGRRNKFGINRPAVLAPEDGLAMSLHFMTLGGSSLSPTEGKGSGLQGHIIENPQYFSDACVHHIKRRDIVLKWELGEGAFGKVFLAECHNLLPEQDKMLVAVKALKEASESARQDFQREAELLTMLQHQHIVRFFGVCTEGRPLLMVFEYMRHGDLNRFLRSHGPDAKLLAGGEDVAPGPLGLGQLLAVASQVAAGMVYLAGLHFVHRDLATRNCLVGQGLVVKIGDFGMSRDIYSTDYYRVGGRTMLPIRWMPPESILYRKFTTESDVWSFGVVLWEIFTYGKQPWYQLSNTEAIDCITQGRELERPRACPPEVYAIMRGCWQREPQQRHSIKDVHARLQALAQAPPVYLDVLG
T5 sequence (Q16288 whole entry, the tested form may be a part): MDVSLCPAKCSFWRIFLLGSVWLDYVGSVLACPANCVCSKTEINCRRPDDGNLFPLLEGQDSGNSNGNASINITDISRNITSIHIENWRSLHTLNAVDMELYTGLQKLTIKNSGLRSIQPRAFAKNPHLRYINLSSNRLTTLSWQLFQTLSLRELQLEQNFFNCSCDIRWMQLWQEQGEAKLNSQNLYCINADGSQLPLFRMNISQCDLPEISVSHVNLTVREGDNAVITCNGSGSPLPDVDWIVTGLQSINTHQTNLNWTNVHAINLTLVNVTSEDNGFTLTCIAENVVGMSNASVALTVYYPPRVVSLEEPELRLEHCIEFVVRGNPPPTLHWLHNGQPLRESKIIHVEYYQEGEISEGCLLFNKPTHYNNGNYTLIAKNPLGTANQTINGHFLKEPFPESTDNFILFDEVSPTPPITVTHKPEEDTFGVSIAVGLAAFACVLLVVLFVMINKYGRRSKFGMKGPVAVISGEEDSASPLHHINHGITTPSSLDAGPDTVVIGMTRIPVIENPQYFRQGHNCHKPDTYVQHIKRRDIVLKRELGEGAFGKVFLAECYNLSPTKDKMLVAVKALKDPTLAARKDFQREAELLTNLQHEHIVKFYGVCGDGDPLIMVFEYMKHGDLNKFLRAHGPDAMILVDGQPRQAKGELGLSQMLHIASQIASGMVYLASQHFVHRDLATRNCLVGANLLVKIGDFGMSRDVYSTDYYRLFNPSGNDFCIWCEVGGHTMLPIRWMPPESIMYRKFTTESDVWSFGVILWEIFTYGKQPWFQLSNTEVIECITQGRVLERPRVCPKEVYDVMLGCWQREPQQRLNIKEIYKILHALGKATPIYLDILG
PDGFRA, sequence (P16234 24-1089, species assumed): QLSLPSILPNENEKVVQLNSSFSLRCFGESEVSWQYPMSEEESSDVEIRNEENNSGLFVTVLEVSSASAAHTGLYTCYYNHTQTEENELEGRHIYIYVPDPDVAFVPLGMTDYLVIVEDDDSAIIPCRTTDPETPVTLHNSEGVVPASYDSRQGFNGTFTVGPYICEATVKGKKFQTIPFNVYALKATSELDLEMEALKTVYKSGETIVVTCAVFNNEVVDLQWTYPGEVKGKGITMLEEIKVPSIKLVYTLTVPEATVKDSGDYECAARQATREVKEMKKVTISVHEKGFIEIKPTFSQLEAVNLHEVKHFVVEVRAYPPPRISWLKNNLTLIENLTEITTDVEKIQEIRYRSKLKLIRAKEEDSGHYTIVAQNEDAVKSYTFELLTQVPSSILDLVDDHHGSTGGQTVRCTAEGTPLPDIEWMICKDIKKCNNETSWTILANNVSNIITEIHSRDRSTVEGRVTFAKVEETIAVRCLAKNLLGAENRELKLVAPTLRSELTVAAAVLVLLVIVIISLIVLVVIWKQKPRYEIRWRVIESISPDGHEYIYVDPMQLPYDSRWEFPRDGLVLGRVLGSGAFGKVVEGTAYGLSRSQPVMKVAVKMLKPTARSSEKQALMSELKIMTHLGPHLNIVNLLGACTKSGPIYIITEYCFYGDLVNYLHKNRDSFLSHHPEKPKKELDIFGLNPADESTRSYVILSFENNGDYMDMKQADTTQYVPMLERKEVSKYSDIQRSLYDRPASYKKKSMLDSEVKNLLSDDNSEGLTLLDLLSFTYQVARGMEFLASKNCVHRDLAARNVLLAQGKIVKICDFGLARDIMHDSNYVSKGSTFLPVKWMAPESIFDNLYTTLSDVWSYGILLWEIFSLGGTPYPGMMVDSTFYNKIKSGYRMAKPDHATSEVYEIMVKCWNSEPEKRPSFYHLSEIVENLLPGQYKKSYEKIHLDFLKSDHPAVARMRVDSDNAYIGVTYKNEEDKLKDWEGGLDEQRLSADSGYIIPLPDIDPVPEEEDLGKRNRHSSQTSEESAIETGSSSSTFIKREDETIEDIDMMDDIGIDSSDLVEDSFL

As to `Cc1c(C#Cc2cnc3cnc(-c4ccc(N)cc4)cn23)cccc1C(=O)Nc1cc(CN2CCN(C)CC2)cc(C(C)C)c1` [Compound 9o], in data set [1] (intravenous injection, 5 mg/kg), the “AUC (0-∞)” value is 810.45 ng·h/mL, the “AUC(0-t)” value is 804.65 ng·h/mL, the Clearance rate was 21.0085 mL/min/kg and the Cmax is 1968.37 ng/mL. Further, in [1] (intravenous injection, 5 mg/kg), the Tmax was 0.083 h and the half-life is 2.03 h. Moreover, in data set [1] (oral 25 mg/kg vs intravenous 5 mg/kg), the BA is listed as 10.72%. In addition, in data set [1] (oral, 25 mg/kg), the “AUC (0-∞)” value is 445.18 ng·h/mL, the “AUC(0-t)” value was 431.49 ng·h/mL, the Cmax is listed as 63.3 ng/mL and the Tmax is on record as 2 h. In addition, the half-life in data set [1] (oral, 25 mg/kg) is listed as 4.77 h.
Take `Cc1c(C#Cc2cnc3ccc(N4CCC(N(C)C)CC4)nn23)cccc1C(=O)Nc1cc(CN2CCN(C)CC2)cc(C(F)(F)F)c1` [XS3-67, 3-((6-(4-(DIMETHYLAMINO)PIPERIDIN-1-YL)IMIDAZO[1,2-B]PYRIDAZIN-3-YL)ETHYNYL)-2-METHYL-N-(3-((4-METHYLPIPERAZIN-1-YL)METHYL)-5-(TRIFLUOROMETHYL)PHENYL)BENZAMIDE]: the IC50 in [2] was less than 10 nM; in [3], less than 10 nM; in [4], 10 to 100 nM; in data set [5], 100 to 1000 nM; in data set [6], 10 to 100 nM; in data set [7] it was 100 to 1000 nM.
For `Cc1cn(-c2cc(NC(=O)c3cccc(C#Cc4cnc5ccc(N6CCOCC6)nn45)c3C)cc(C(F)(F)F)c2)cn1` [XS3-91], the half-inhibitory concentration (IC50) was less than 10 nM in [2]; less than 10 nM in [3]; less than 10 nM in data set [4]; 10 to 100 nM in data set [5]; less than 10 nM in data set [6]; 10 to 100 nM in data set [7].
In the case of `Cc1c(C#Cc2cnc3ccc(N4CCC(N5CCOCC5)CC4)nn23)cccc1C(=O)Nc1cc(Cl)cc(C(F)(F)F)c1` [XS3-130, N-(3-CHLORO-5-(TRIFLUOROMETHYL)PHENYL)-2-METHYL-3-((6-(4-MORPHOLINPIPERIDIN-1-YL)IMIDAZO[1,2-B]PYRIDAZIN-3-YL)ETHYNYL)BENZAMIDE], the IC50 in [2] is less than 10 nM; in data set [3], 10 to 100 nM; in data set [4], 10 to 100 nM; in data set [5] it was 10 to 100 nM; in data set [6], 10 to 100 nM; in [7] it was 10 to 100 nM.
`Cc1c(C#Cc2cnc3ccc(N4CCC(N)CC4)nn23)cccc1C(=O)Nc1cc(Cl)cc(C(F)(F)F)c1` [XS3-131, 3-((6-(4-AMINOPIPERIDIN-1-YL)IMIDAZO[1,2-B]PYRIDAZIN-3-YL)ETHYNYL)-N-(3-CHLORO-5-(TRIFLUOROMETHYL)PHENYL)-2-METHYLBENZAMIDE]: the IC50 in data set [2] was in the range of 10 to 100 nM; in data set [3] it was 10 to 100 nM; in [4], 10 to 100 nM; in data set [5], 100 to 1000 nM; in [6], 10 to 100 nM; in [7], 100 to 1000 nM.
In the case of `Cc1c(C#Cc2cnc3ccc(N(C)CCN(C)C)nn23)cccc1C(=O)Nc1cc(Cl)cc(C(F)(F)F)c1` [XS3-134, N-(3-CHLORO-5-(TRIFLUOROMETHYL)PHENYL)-3-((6-((2-(DIMETHYLAMINO)ETHYL)(METHYL)AMINO)IMIDAZO[1,2-B]PYRIDAZIN-3-YL)ETHYNYL)-2-METHYLBENZAMIDE], the IC50 in data set [2] is 10 to 100 nM; in data set [3] it was 10 to 100 nM; in [4] it was 10 to 100 nM; in data set [5], 100 to 1000 nM; in data set [6] it was 10 to 100 nM; in data set [7] it was 100 to 1000 nM.
Turning to `COCCNc1ccc2ncc(C#Cc3cccc(C(=O)Nc4cc(Cl)cc(C(F)(F)F)c4)c3C)n2n1` [XS3-135, N-(3-CHLORO-5-(TRIFLUOROMETHYL)PHENYL)-3-((6-((2-METHOXYETHYL)AMINO)IMIDAZO[1,2-B] PYRIDAZIN-3-YL)ETHYNYL)-2-METHYLBENZAMIDE], the IC50 in data set [2] fell in the range of 10 to 100 nM; in data set [3], 10 to 100 nM; in data set [4] it was 10 to 100 nM; in [5], 100 to 1000 nM; in [6], 10 to 100 nM; in data set [7], 100 to 1000 nM.
Regarding `Cc1c(C#Cc2cnc3ccc(N4CCN(C5COC5)CC4)nn23)cccc1C(=O)Nc1cc(Cl)cc(C(F)(F)F)c1` [XS3-138, N-(3-CHLORO-5-(TRIFLUOROMETHYL)PHENYL)-2-METHYL-3-((6-(4-(OXETAN-3-YL)PIPERAZINE)-1-YL)IMIDAZO[1,2-B]PYRIDAZIN-3-YL)ETHYNYL)BENZAMIDE], the IC50 was less than 10 nM in data set [2]; 10 to 100 nM in data set [3]; less than 10 nM in [4]; 10 to 100 nM in data set [5]; less than 10 nM in data set [6]; 10 to 100 nM in data set [7].
Turning to `Cc1c(C#Cc2cnc3ccc(NCCCCO)nn23)cccc1C(=O)Nc1cc(Cl)cc(C(F)(F)F)c1` [XS3-139, N-(3-CHLORO-5-(TRIFLUOROMETHYL)PHENYL)-3-((6-((4-HYDROXYBUTYL)AMINO)IMIDAZO[1,2-B]PYRIDAZINE-3-YL)ETHYNYL)-2-METHYLBENZAMIDE], the IC50 in data set [2], in data set [3], in [4], in data set [5], in data set [6] and in data set [7] was 10 to 100 nM throughout.
`Cc1c(C#Cc2cnc3ccc(N4CCC(C)(O)CC4)nn23)cccc1C(=O)Nc1cc(Cl)cc(C(F)(F)F)c1` [XS3-153, N-(3-CHLORO-5-(TRIFLUOROMETHYL)PHENYL)-3-(6-(4-HYDROXY-4-METHYLPIPERIDIN-1-YL)IMIDAZO[1,2-B]PYRIDAZIN-3-YL)ETHYNYL)-2-METHYLBENZAMIDE]: the IC50 in data set [2], in data set [3], in [4], in data set [5], in data set [6] and in data set [7] was 10 to 100 nM each time.
Take `COc1cc(NC(=O)c2cccc(C#Cc3cnc4ccc(N5CCOCC5)nn34)c2C)cc(C(F)(F)F)c1` [XS4-72]: the IC50 is 10 to 100 nM in data set [2]; 10 to 100 nM in data set [3]; 10 to 100 nM in [4]; 10 to 100 nM in [5]; less than 10 nM in data set [6]; 10 to 100 nM in data set [7].
As for `Cc1c(C#Cc2cnc3ccc(N4CCOCC4)nn23)cccc1C(=O)Nc1cc(C(F)(F)F)cc(C(F)(F)F)c1` [XS4-76], the 50% inhibitory concentration (IC50) in [2], in data set [3], in [4], in data set [5], in [6] and in data set [7] was 10 to 100 nM in each case.
Consider `Cc1c(C#Cc2cnc3ccc(N4CCOCC4)nn23)cccc1C(=O)Nc1cc([N+](=O)[O-])cc(C(F)(F)F)c1` [XS4-77], for which the IC50 in data set [2] was 10 to 100 nM; in [3], 10 to 100 nM; in data set [4], 10 to 100 nM; in data set [5], 10 to 100 nM; in [6] it was less than 10 nM; in data set [7] it was 10 to 100 nM.
As for `Cc1ccc(C(=O)Nc2cc(Cl)cc(C(F)(F)F)c2)cc1C#Cc1cnc2ccc(N3CCC(O)CC3)nn12` [XS4-128, N-(3-Chloro-5-(trifluoromethyl)phenyl)-3-((6-(4-hydroxypiperidin-1-yl)imidazo[1,2-B]pyridazine-3-yl)ethynyl)-4-methylbenzamide, reference compound], the IC50 is 20.3 nM in [8]; 119 nM in data set [9]; 129 nM in data set [10]; 18.9 nM in data set [11]; 19.9 nM in [12]; 93.5 nM in [13]. This compound yielded an IC50 in data set [14] of 10.7 nM.
As for `Cc1c(C#Cc2cnc3cccnn23)cccc1C(=O)Nc1cc(CN2CCN(C)CC2)cc(C(F)(F)F)c1` [XS116], the half-maximal inhibitory concentration (IC50) in data set [2] was 10 to 100 nM; in [3], 10 to 100 nM; in [4], 10 to 100 nM; in data set [5], 100 to 1000 nM; in [6] it was 100 to 1000 nM; in data set [7] it was 100 to 1000 nM.
